Source: US9120812B2, “Pyrimidooxazocine derivatives as mTOR-inhibitors” (SANOFI, priority 2012, dated 2015)

What was measured:
PI3Kα (p110α/p85α) = PI3Kα (p110α/p85α) (Homo sapiens (Human), UniProt P42336); assay: PI3Kα enzymatic test by measuring the consumption of ATP; assay type: biochemical
Procedure, shortened: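 p110α/p85α (1.7 μg/ml) with 50 μM PIP2 and 2 μM ATP in pH 7.5 Tris buffer with EGTA, MgCl2, Chaps, DTT; reaction 90 min. Remaining ATP measured by luciferin/luciferase luminescence; IC50 from threefold serial dilutions spanning at least 10 000-fold.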

U87MG tumour cells = assay: Test of in vitro proliferation of U87MG tumour cells; assay type: cell-based; settings: Homo sapiens, U-87 MG, 72 h, U87MG cells, 72 hours; read-out: U87 Cell Proliferation IC50
Description: Model 4: Test of in vitro Proliferation of U87MG Tumour Cells.
The cell growth is determined with the reagent CellTiter 96 AQueous One Solution Cell Proliferation Assay from Promega (Cat. No. G3581).

[1] = target: mTOR (human recombinant aa mTOR 1360-2549) (Homo sapiens (Human), UniProt P42345); assay: mTOR enzymatic test by TR-FRET (phosphorylation of GFP-4EBP1); assay type: biochemical
mTOR (human recombinant aa mTOR 1360-2549), sequence (P42345 1360-2549): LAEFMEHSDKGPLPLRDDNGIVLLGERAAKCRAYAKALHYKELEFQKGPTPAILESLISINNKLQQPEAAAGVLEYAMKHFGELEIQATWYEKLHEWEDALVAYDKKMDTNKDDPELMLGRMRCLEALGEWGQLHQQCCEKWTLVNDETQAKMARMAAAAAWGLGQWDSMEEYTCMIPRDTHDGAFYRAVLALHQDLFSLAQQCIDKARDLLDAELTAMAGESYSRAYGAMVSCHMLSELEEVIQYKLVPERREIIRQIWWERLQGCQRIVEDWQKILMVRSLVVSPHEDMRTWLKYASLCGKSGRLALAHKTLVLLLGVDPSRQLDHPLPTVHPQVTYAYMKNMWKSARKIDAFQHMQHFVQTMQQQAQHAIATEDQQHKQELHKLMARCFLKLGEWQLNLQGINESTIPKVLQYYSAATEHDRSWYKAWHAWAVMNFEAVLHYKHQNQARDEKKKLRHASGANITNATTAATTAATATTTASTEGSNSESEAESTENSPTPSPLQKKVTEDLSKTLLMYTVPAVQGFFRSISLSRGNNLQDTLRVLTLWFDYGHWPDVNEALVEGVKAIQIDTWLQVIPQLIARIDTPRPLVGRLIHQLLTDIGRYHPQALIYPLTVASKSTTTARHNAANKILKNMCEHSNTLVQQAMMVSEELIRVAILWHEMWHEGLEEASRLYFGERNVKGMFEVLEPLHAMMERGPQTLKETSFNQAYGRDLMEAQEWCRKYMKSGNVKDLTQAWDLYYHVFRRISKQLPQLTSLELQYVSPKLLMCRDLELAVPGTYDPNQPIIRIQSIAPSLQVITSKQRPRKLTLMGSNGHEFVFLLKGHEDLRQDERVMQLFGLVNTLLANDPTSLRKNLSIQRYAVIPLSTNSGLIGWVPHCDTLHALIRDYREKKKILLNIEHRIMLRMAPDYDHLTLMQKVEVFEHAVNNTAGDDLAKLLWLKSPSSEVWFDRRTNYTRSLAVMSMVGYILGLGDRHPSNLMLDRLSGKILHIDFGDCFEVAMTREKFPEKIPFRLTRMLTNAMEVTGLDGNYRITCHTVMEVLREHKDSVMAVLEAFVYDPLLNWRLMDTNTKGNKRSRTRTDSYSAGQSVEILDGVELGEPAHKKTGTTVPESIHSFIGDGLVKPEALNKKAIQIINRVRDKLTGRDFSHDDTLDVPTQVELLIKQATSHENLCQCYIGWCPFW
Procedure, shortened: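 TR-FRET detection of GFP-4EBP1 phosphorylation by a terbium-labelled anti-phospho-Thr46 antibody. Kinase reaction ran 30 min at room temperature, was quenched with EDTA (10 mM final) plus Tb-antibody (2 nM final) and left 60 min. Emission at 520 and 490 nm after 340 nm excitation, reported as the 520/490 ratio.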

Akt-pS473 in U87MG cells = settings: Homo sapiens, U-87 MG, read-out: U87 Akt-pS473 % Inhibition or IC50, nM (IC50), U87MG cells

PI3Kα (p110α/p85α), sequence (P42336 whole entry): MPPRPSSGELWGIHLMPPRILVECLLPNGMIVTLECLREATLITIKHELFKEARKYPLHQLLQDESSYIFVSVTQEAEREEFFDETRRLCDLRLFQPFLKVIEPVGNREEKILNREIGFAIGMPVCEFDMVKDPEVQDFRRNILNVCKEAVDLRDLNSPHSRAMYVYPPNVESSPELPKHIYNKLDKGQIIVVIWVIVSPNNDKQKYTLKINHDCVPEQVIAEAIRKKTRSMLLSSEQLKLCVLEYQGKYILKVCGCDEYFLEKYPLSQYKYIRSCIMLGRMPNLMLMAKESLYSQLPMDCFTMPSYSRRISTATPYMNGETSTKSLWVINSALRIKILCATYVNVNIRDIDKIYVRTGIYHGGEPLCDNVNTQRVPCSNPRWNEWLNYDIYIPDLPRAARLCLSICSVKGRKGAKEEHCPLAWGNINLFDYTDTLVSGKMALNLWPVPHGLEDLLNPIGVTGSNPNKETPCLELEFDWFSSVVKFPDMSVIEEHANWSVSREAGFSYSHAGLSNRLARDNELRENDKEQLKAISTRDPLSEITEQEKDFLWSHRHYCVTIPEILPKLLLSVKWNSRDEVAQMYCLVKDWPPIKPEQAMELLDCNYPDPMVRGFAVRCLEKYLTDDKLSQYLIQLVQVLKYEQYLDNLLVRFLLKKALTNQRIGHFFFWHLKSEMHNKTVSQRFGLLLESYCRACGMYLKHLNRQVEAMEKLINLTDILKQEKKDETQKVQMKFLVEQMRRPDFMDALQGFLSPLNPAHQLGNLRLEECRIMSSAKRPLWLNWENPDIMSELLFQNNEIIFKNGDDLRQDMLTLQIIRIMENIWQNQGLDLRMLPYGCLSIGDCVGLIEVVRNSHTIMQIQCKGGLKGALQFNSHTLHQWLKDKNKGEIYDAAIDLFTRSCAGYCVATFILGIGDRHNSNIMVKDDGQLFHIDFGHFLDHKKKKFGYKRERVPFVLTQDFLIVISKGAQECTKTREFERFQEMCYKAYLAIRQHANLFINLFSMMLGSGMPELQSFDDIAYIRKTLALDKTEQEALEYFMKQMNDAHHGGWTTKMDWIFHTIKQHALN
PI3Kα (p110α/p85α), sequence (P27986 whole entry partner): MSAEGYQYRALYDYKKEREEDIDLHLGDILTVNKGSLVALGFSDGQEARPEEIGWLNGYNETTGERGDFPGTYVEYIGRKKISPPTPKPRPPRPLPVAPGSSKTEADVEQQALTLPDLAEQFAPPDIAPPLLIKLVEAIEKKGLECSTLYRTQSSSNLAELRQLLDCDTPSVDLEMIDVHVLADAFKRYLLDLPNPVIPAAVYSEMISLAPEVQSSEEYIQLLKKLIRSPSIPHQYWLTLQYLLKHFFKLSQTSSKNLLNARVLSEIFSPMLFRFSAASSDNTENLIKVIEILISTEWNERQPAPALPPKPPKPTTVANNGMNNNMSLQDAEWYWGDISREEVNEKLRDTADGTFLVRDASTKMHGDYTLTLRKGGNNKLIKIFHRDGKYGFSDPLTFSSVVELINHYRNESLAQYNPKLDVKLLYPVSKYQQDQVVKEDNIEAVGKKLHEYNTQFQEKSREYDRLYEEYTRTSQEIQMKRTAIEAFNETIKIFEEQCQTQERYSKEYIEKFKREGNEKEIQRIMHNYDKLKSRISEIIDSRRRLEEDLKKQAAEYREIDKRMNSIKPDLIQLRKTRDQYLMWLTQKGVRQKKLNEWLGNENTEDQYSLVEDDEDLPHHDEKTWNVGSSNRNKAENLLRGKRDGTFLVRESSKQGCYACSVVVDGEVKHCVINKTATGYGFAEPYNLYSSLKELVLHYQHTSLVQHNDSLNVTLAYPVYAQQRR

SMILES | PI3Ka IC50 (PI3Kα (p110α/p85α)) | IC50 (U87MG tumour cells) | IC50 [1] | IC50 (Akt-pS473 in U87MG cells)
CCN1CC(C)(C)Oc2nc(N3CC4CCC(C3)O4)nc(-c3ccc(NC(=O)OC[C@H](C)O)c(F)c3)c2C1=O [Example 20, {4-[6-ethyl-8,8-dimethyl-2-(8-oxa-3-azabicyclo[3.2.1]oct-3-yl)-5-oxo-5,6,7,8-tetrahydro-9-oxa-1,3,6-triazabenzocyclohepten-4-yl]-2-fluorophenyl}carbamic acid (S)-2-hydroxypropyl ester] | >10 µM | 7.59 µM | 0.286 µM | > 1000 nM
COc1ccnc(NC(=O)Nc2ccc(-c3nc(N4CC5CCC(C4)O5)nc4c3C(=O)N(C)CC(C)(C)O4)cc2)c1 [Example 21, 1-(4-methoxypyridin-2-yl)-3-{4-[6,8,8-trimethyl-2-(8-oxa-3-azabicyclo[3.2.1]oct-3-yl)-5-oxo-5,6,7,8-tetrahydro-9-oxa-1,3,6-triazabenzocyclohepten-4-yl]phenyl}urea] | >10 µM | 0.549 µM | 0.015 µM | 51 nM
CCN1CC(C)(C)Oc2nc(N3CC4CCC(C3)O4)nc(-c3ccc(NC(=O)Nc4ccc(OC5CCN(C)CC5)nc4)c(F)c3)c2C1=O [Example 22, 1-{4-[6-ethyl-8,8-dimethyl-2-(8-oxa-3-azabicyclo[3.2.1]oct-3-yl)-5-oxo-5,6,7,8-tetrahydro-9-oxa-1,3,6-triazabenzocyclohepten-4-yl]-2-fluorophenyl}-3-[6-(1-methylpiperidin-4-yloxy)pyridin-3-yl]urea] | 3.07 µM | 0.068 µM | 0.076 µM | 28 nM
CCN1CC(C)(C)Oc2nc(N3CCOC[C@@H]3C)nc(-c3ccc(NC(=O)Nc4ccc(C(=O)N5CCC(N(C)C)CC5)cc4)cc3)c2C1=O [Example 23, 1-[4-(4-dimethylaminopiperidine-1-carbonyl)phenyl]-3-{4-[6-ethyl-8,8-dimethyl-2-((S)-3-methylmorpholin-4-yl)-5-oxo-5,6,7,8-tetrahydro-9-oxa-1,3,6-triazabenzocyclohepten-4-yl]phenyl}urea] | 0.079 µM | 0.03 µM | 0.051 µM | 62 nM
CCN1CC(C)(C)Oc2nc(N3CC4CCC(C3)O4)nc(-c3ccc(NC(=O)Nc4ccc(N5CCCC5)cn4)cc3)c2C1=O [Example 25, 1-{4-[6-ethyl-8,8-dimethyl-2-(8-oxa-3-azabicyclo[3.2.1]oct-3-yl)-5-oxo-5,6,7,8-tetrahydro-9-oxa-1,3,6-triazabenzocyclohepten-4-yl]phenyl}-3-(5-pyrrolidin-1-ylpyridin-2-yl)urea] | >10 µM | 0.196 µM | 0.13 µM | 124 nM
CCN1CC(C)(C)Oc2nc(N3CCOC[C@@H]3C)nc(-c3ccc(NC(=O)Nc4ccon4)c(C)c3)c2C1=O [Example 26, 1-{4-[6-ethyl-8,8-dimethyl-2-((S)-3-methylmorpholin-4-yl)-5-oxo-5,6,7,8-tetrahydro-9-oxa-1,3,6-triazabenzocyclohepten-4-yl]-2-methylphenyl}-3-isoxazol-3-ylurea] | 3.86 µM | 3.57 µM | 0.112 µM | > 1000 nM
CCN1CC(C)(C)Oc2nc(N3CC4CCC(C3)O4)nc(-c3ccc(NC(=O)Nc4cncc(OC)n4)cc3)c2C1=O [Example 28, 1-{4-[6-ethyl-8,8-dimethyl-2-(8-oxa-3-azabicyclo[3.2.1]oct-3-yl)-5-oxo-5,6,7,8-tetrahydro-9-oxa-1,3,6-triazabenzocyclohepten-4-yl]phenyl}-3-(6-methoxypyrazin-2-yl)urea] | >10 µM | 0.508 µM | 0.059 µM | 42 nM
CCN1CC(C)(C)Oc2nc(N3CC4CCC(C3)O4)nc(-c3ccc(NC(=O)Nc4ccc(N5CCOC[C@@H]5C)nc4)c(F)c3)c2C1=O [Example 29, 1-{4-[6-ethyl-8,8-dimethyl-2-(8-oxa-3-azabicyclo[3.2.1]oct-3-yl)-5-oxo-5,6,7,8-tetrahydro-9-oxa-1,3,6-triazabenzocyclohepten-4-yl]-2-fluorophenyl}-3-[6-((S)-3-methylmorpholin-4-yl)pyridin-3-yl]urea] | >10 µM | 0.165 µM | 0.038 µM | 32 nM
CCN1CC(C)(C)Oc2nc(N3CC4CCC(C3)O4)nc(-c3ccc(NC(=O)Nc4ccc(N5CCOC[C@H]5C)nc4)c(F)c3)c2C1=O [Example 30, 1-{4-[6-ethyl-8,8-dimethyl-2-(8-oxa-3-azabicyclo[3.2.1]oct-3-yl)-5-oxo-5,6,7,8-tetrahydro-9-oxa-1,3,6-triazabenzocyclohepten-4-yl]-2-fluorophenyl}-3-[6-((R)-3-methylmorpholin-4-yl)pyridin-3-yl]urea] | >10 µM | 0.046 µM | 0.021 µM | 15 nM
CCN1CC(C)(C)Oc2nc(N3CC4CCC(C3)O4)nc(-c3ccc(NC(=O)Nc4ccc(N5CCCCC5)nc4)c(F)c3)c2C1=O [Example 31, 1-{4-[6-Ethyl-8,8-dimethyl-2-(8-oxa-3-azabicyclo[3.2.1]oct-3-yl)-5-oxo-5,6,7,8-tetrahydro-9-oxa-1,3,6-triazabenzocyclohepten-4-yl]-2-fluorophenyl}-3-(3,4,5,6-tetrahydro-2H-[1,2′]bipyridinyl-5′-yl)urea] | >10 µM | 0.035 µM | 0.065 µM | 17 nM
CCN1CC(C)(C)Oc2nc(N3CC4CCC(C3)O4)nc(-c3ccc(NC(=O)Nc4ccc(N5CCCC5)nc4)c(F)c3)c2C1=O [Example 32, 1-{4-[6-Ethyl-8,8-dimethyl-2-(8-oxa-3-azabicyclo[3.2.1]oct-3-yl)-5-oxo-5,6,7,8-tetrahydro-9-oxa-1,3,6-triazabenzocyclohepten-4-yl]-2-fluorophenyl}-3-(6-pyrrolidin-1-ylpyridin-3-yl)urea] | >10 µM | 0.115 µM | 0.084 µM | 21 nM
CCN1CC(C)(C)Oc2nc(N3CC4CCC(C3)O4)nc(-c3ccc(NC(=O)Nc4ccccn4)cc3)c2C1=O [Example 33, 1-{4-[6-Ethyl-8,8-dimethyl-2-(8-oxa-3-azabicyclo[3.2.1]oct-3-yl)-5-oxo-5,6,7,8-tetrahydro-9-oxa-1,3,6-triazabenzocyclohepten-4-yl]phenyl}-3-pyridin-2-ylurea] | 9.24 µM | 0.226 µM | 0.024 µM | 42 nM
CCN1CC(C)(C)Oc2nc(N3CC4CCC(C3)O4)nc(-c3ccc(NC(=O)Nc4ccc(C)cn4)cc3)c2C1=O [Example 34, 1-{4-[6-Ethyl-8,8-dimethyl-2-(8-oxa-3-azabicyclo[3.2.1]oct-3-yl)-5-oxo-5,6,7,8-tetrahydro-9-oxa-1,3,6-triazabenzocyclohepten-4-yl]phenyl}-3-(5-methylpyridin-2-yl)urea] | >10 µM | 0.32 µM | 0.043 µM | 70 nM
CCN1CC(C)(C)Oc2nc(N3CC4CCC(C3)O4)nc(-c3ccc(NC(=O)Nc4cc(OC)ccn4)cc3)c2C1=O [Example 35, 1-{4-[6-Ethyl-8,8-dimethyl-2-(8-oxa-3-azabicyclo[3.2.1]oct-3-yl)-5-oxo-5,6,7,8-tetrahydro-9-oxa-1,3,6-triazabenzocyclohepten-4-yl]phenyl}-3-(4-methoxypyridin-2-yl)urea] | >10 µM | 0.336 µM | 0.037 µM | 75 nM
CCN1CC(C)(C)Oc2nc(N3CCOC[C@@H]3C)nc(-c3ccc(NC(=O)Nc4cccc(C)n4)cc3)c2C1=O [Example 36, 1-{4-[6-Ethyl-8,8-dimethyl-2-((S)-3-methylmorpholin-4-yl)-5-oxo-5,6,7,8-tetrahydro-9-oxa-1,3,6-triazabenzocyclohepten-4-yl]phenyl}-3-(6-methylpyridin-2-yl)urea] | 4.4 µM | 0.686 µM | 0.055 µM | 129 nM
CC[C@H]1COCCN1c1nc2c(c(-c3ccc(NC(=O)Nc4ccc(C)nc4)c(F)c3)n1)C(=O)N(CC)CC(C)(C)O2 [Example 37, 1-{4-[6-Ethyl-2-((S)-3-ethylmorpholin-4-yl)-8,8-dimethyl-5-oxo-5,6,7,8-tetrahydro-9-oxa-1,3,6-triazabenzocyclohepten-4-yl]-2-fluorophenyl}-3-(6-methylpyridin-3-yl)urea] | 8.63 µM | 0.869 µM | 0.122 µM | 54 nM
CNC(=O)Nc1ccc(-c2nc(N3CC4CCC(C3)O4)nc3c2C(=O)N(C)CC(C)(C)O3)cc1 [Example 38, 1-Methyl-3-{4-[6,8,8-trimethyl-2-(8-oxa-3-azabicyclo[3.2.1]oct-3-yl)-5-oxo-5,6,7,8-tetrahydro-9-oxa-1,3,6-triazabenzocyclohepten-4-yl]phenyl}urea] | 3.45 µM | 0.218 µM | 0.022 µM | 23 nM
CN1CC(C)(C)Oc2nc(N3CC4CCC(C3)O4)nc(-c3ccc(NC(=O)Nc4ccccn4)cc3)c2C1=O [Example 39, 1-Pyridin-2-yl-3-{4-[6,8,8-trimethyl-2-(8-oxa-3-azabicyclo[3.2.1]oct-3-yl)-5-oxo-5,6,7,8-tetrahydro-9-oxa-1,3,6-triazabenzocyclohepten-4-yl]phenyl}urea] | 5.87 µM | 0.207 µM | 0.026 µM | 34 nM
